For data set [1], the system named is patients with osteoarthritis. Particulars: dosages 5, 15, 35 and 50 mg; cited from earlier work.
Data set [2] has as its system patients with acute painful knee osteoarthritis (OA). As to the kind of experiment: SF-36 questionnaire (functional status). In kind it is in vivo. The following applies: mean ± SD. From the text: (§1) The aim of this randomized, double-blind, placebo-controlled study was to assess the efficacy of intravenous neridronate in controlling pain in patients with acute painful knee osteoarthritis (OA).
(§2) From March 2013 to January 2014, 96 patients older than 50 years and with a recent onset of knee pain were screened. These patients came from the orthopedic and rheumatologic outpatients services and the emergency department of a tertiary care center devoted to bone and joint diseases. Sixty-eight patients were considered eligible to be recruited when they met the following inclusion criteria: 1) knee OA fulfilling the American College of Rheumatology diagnostic criteria; 2) a radiographic Kellgren-Lawrence grading score ≥2 in the tibiofemoral joint; 3) a continuous knee pain by at least 2 weeks with an onset no longer than three months; 4) a pain intensity greater than 30 mm on a Huskisson's visual analog scale ranging from 0 (no pain) to 100 mm (maximal pain); 5) a knee MR scan showing large (>1 cm according to international criteria) BMLs. […] At the time of recruitment, 58 patients out of 68 (85.3%) were taking or had taken drugs to control pain in the previous three months. The patients were asked not to take any analgesics or nonsteroidal anti-inflammatory drugs (NSAIDs) throughout the study period. All patients gave written consent. The study was approved by the Ethics Committee of the hospital where the study was carried out.
(§3) After enrolment, patients were randomized to receive placebo or sodium neridronate (Abiogen, Pisa, Italy) 100 mg/8 ml in vials with an identical appearance in a 1:1 ratio. Both sodium neridronate and placebo were diluted in 500 ml of saline isotonic solution and infused in the morning for over 2 hours. The treatment was administered every third day four times starting from day 1 (first infusion) and ending on day 10 (fourth infusion). Throughout the infusion course, serum calcium was assayed before each infusion. The values were adjusted for albumin value of 4.2 g/dL. After 60 days (57-66) from the first infusion, the last clinical assessment was performed. Two months after the end of the study, patients were interviewed by telephone about a possible relapse of pain and the possible resumption of analgesic drugs and/or NSAIDs.
(§4) Primary outcome of the study was the assessment and comparison of changes in pain intensity between the sodium neridronate group and the placebo group along the study. Pain in the affected knee was measured by VAS (0-100) at day 1 (T0), at the day of the last infusion (day 10; T1) and 50 days later (T2). […] As additional endpoint, changes in WORMS score before the treatment and at T2 have been measured.

Data set [3] has the same test system. The experiment in a line: WOMAC pain questionnaire. In kind it is in vivo. The following applies: mean ± SD.
Excerpt: as §1
(§5) From March 2013 to January 2014, 96 patients older than 50 years and with a recent onset of knee pain were screened. These patients came from the orthopedic and rheumatologic outpatients services and the emergency department of a tertiary care center devoted to bone and joint diseases. […]
as §4

Data set [4] has the same test system. The experiment in a line: McGill Pain Questionnaire. In kind it is in vivo. The following applies: mean ± SD.
Excerpt: as §1, §5, §4

The test system is the same in data set [5]. As to the kind of experiment: Adverse events during the infusion course. In kind it is in vivo. Particulars: one patient, after the first infusion. The procedure: as §3
Fifty-six patients completed the study. […] Eight patients in the placebo group were excluded for the resumption of analgesic or NSAIDs treatment during the study (7 patients) and one patient refused to return to be evaluated 50 days after the treatment. […]

The test system is the same in data set [6]. The experiment in a line: Telephone interview on resumption of analgesic drugs and/or NSAIDs. In kind it is in vivo. Particulars: two months after the last clinical evaluation; 4 patients out of 31. The procedure: as §3
Data set [7] shares this test system. The experiment in a line: Pain in the affected knee by VAS (0-100), randomized double-blind placebo-controlled study. In kind it is in vivo. Particulars: mean ± SD.
Excerpt: as §1, §2, §3
Primary outcome of the study was the assessment and comparison of changes in pain intensity between the sodium neridronate group and the placebo group along the study. Pain in the affected knee was measured by VAS (0-100) at day 1 (T0), at the day of the last infusion (day 10; T1) and 50 days later (T2). As secondary endpoints, the following clinical assessments were performed: the Western Ontario and MacMaster Universities Osteoarthritis Index (WOMAC) pain questionnaire; the McGill Pain Questionnaire and the 36-Item Short Form Health Survey (SF-36) questionnaire to assess the patient's functional status. All these instruments were administered at T0 and T2. As additional endpoint, changes in WORMS score before the treatment and at T2 have been measured.

The test system of data set [8] is subchondral BMLs in patients with painful knee OA. The experiment in a line: Knee MRI, WORMS score for bone marrow edema. In kind it is in vivo. Particulars: mean ± SD. The protocol: as §3
High resolution, three-dimensional MRI of the target knee was obtained for each patient before the start of the treatment (1-7 days) and at the end of the study (day 58-69). All MR images were evaluated by a skilled musculoskeletal radiologist who was blinded to the patient's treatment. All MR examinations were performed with a 1.5 T scanner (Magnetom Espree, Siemens) using a dedicated knee coil. Imaging was performed on sagittal, coronal and transverse planes, with a field of view (FOV) of 18 cm and a matrix of acquisition of 256×256. The MR protocol included: spin echo (SE) T1-weighted sequences (repetition time TR 580 ms, echo time TE 12 ms, number of signal averages 2, thickness 3.0 mm, intersection gap 0.5 mm) on sagittal, coronal and transverse planes; SE T2-weighted sequences (TR 4.000 ms, TE 30/100 ms, one signal acquired, thickness 3.0 mm, intersection gap 0.5 mm) on sagittal and transverse planes; PD-weighted sequence with fat/suppression (TR 2800 ms, TE 40 ms, one signal acquired, thickness 3.0 mm, intersection gap 0.5 mm) on coronal plane. Subchondral BMLs were identified as areas of increase signal intensity on fat-suppressed T2-weighted images. Scores were assigned using the Whole-Organ MRI score for knee OA (WORMS) for bone marrow edema. […] For each subregion, the extent of the lesion was assessed following the WORMS scale: 0=absence of edema; 1=less than 25%; 2=25-50%; 3=>50%.
as §4

Setting [9] is: 50 days after the end of treatment (T2), N = 31.

Here are results for two compounds from patent publication US20230233585A1, “USE OF […] OR OF ITS SALT FOR THE TREATMENT OF OSTEOARTHROSIS” (ABIOGEN PHARMA S.P.A., priority 2014, published 2023).

SMILES strings stand for the structures.

For `O=P(O)(O)C(O)(Cc1cccnc1)P(=O)(O)O` [risedronate], the “efficacy of treatment in pain symptoms versus placebo” value in data set [1] is “it was not possible to find any difference”.

Take `NCCCCCC(O)(P(=O)(O)O)P(=O)(O)O` [sodium neridronate]: the SF-36 mental component amounted to 62.5 in data set [2] (setting [9]) and 56.1 ± 12.4 in data set [2] (baseline (T0), N = 34). In addition, the SF-36 physical component in data set [2] (setting [9]) worked out at 51.1; in data set [2] (baseline (T0), N = 34), 36.6 ± 10.2. Also, the WOMAC in data set [3] (setting [9]) is on record as 58; in data set [3] (baseline (T0), N = 34) it was 232 ± 79. Besides, the McGill in data set [4] (setting [9]) was 3.7; in data set [4] (baseline (T0), N = 34) it was 14.3 ± 7.6. Also, the “adverse event leading to withdrawal of consent” value in data set [5] was “acute phase reaction”. Besides, in data set [6], the “patients who had resumed symptomatic therapy with analgesic drugs or NSAIDs” value is recorded as 12.9%. In addition, the VAS score is recorded as 9.4±10.8 in data set [7] (50 days after the end of treatment (T2), 100 mg i.v. x4, N = 31); 9.4 in data set [7] (50 days after the end of treatment (T2), 100 mg i.v. x4, N = 31, listed as Neridronate); 59.0±14.7 in data set [7] (baseline (day 1, T0), before treatment, N = 34); 59.0 ± 14.7 in data set [7] (baseline (day 1, T0), before treatment, N = 34, listed as Neridronate); 30.4±15.6 in data set [7] (day of the last infusion (day 10, T1), 100 mg i.v. on days 1, 4, 7, 10). Also, the WORMS score in data set [8] (T2, MRI at the end of the study, N = 31) came out at 3.7±4.2; in data set [8] (T2, MRI at the end of the study, N = 31, listed as Neridronate), 3.7; in data set [8] (baseline, MRI before the start of treatment, N = 34), 6.3±3.0; in data set [8] (baseline, MRI before the start of treatment, N = 34, listed as Neridronate), 6.3 ± 3.0.
